The values below are quoted from earlier work in US9918986B2, “Methods and compounds for preventing osteoarthritis” (UNIVERSITY COLLEGE CARDIFF CONSULTANTS LIMITED, priority 2013, dated 2018).

For series [1], the system named is AMPA receptor. As to conditions: cited from earlier work.
Series [2] has as its system Kainate receptor. To be noted: cited from earlier work.
Series [3] concerns the target T1, IL-6 receptor (Homo sapiens, UniProt P08887).
T1 construct: host or cells: RA patients (endogenous receptor)
T1 sequence (P08887 20-468): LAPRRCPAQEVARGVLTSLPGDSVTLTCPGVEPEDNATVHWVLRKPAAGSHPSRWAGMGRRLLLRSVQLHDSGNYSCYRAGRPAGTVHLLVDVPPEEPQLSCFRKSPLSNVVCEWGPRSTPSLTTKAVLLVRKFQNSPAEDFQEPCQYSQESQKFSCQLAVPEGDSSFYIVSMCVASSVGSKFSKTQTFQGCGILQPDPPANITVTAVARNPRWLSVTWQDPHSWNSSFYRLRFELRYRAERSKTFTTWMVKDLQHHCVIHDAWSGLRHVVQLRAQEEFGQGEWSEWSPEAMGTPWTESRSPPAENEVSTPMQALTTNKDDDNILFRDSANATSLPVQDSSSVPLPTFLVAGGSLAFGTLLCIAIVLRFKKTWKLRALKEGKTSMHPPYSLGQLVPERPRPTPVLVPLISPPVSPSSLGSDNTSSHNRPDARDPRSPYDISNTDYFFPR
As to conditions: RA patients; cited from earlier work.

Series [4] concerns human RA FLS. As to conditions: cited from earlier work.
The test system of series [5] is rodent arthritis. To be noted: oral administration, cited from earlier work.

In the case of `O=C(O)c1cc(=O)c2ccccc2[nH]1` [Kynurenic acid], the AMPA receptor antagonist result in series [1] is given as “Yes”. Moreover, the Kainate receptor antagonist entry in series [2] is on record as “Yes”.
For the molecule `NCCCNCCCCNCCCNC(=O)Cc1cccc2ccccc12` [1-NAS, 1-naphthyl acetyl sperm me], in series [1], the AMPA receptor antagonist entry was “Yes”. Also, the Kainate receptor antagonist entry in series [2] is recorded as “No”.
Consider “tocilizumab: anti-IL-6 receptor inhibitor”, for which the “synovitis and radiographic changes” value in series [3] is on record as “significantly improves”.
For the molecule `O=C(O)[C@@H]1C[C@H]2C[C@@H](CCc3nn[nH]n3)CC[C@H]2CN1` [Tezampanel], in series [1], the AMPA receptor antagonist result is “Yes”. In series [2], the Kainate receptor antagonist result is reported as “Yes”.
`NC(CCCP(=O)(O)O)C(=O)O` [D-AP5]: the “MMP-2 expression by FLS” value in series [4] is reported as “did not affect”.
As for `O=C1Nc2c(cc([N+](=O)[O-])c3c2CCCC3)C1=NO` [NS-102], the AMPA receptor antagonist result in series [1] is recorded as “Weak”. Moreover, in series [2], the Kainate receptor antagonist entry is listed as “Yes”.
For the molecule `CC1=NN=C(c2ccc(N)cc2)c2cc3c(cc2C1)OCO3` [GYKI52466, 4-(8-Methyl-9H-1,3-dioxolo[4,5-h][2-,3]benzodiazepin-5-yl)-benzenamine], the AMPA receptor antagonist entry in series [1] is listed as “Yes”. Further, in series [5], the body weight loss entry is listed as “attenuated”, the hyperalgesia entry is recorded as “attenuated” and the “primary oedema on the right paw” value is “no effect”. Further, in series [5] (second phase of chronic disease), the “secondary, generalized inflammation-induced swelling of the left paw” value was “no effect”. For the same molecule, in series [2], the Kainate receptor antagonist entry is “Yes”.
In the case of `COc1cc2c(cc1OC)C(c1ccc(N)cc1)=NNC(=O)C2` [CFM-2, 1-(4′-Aminophenyl)-3,5-dihydro-7,8-dimethoxy-4H-2,3-benzodiazepin-4-one], the “MMP-2 expression by FLS” value in series [4] is listed as “did not affect”. Further, the AMPA receptor antagonist entry in series [1] is “Yes”. For the same molecule, the Kainate receptor antagonist entry in series [2] was “No”.
As for `Cc1cn(C[C@H](N)C(=O)O)c(=O)n(Cc2cc(-c3ccccc3)sc2C(=O)O)c1=O` [ACET], the AMPA receptor antagonist result in series [1] is given as “No”. Also, in series [2], the Kainate receptor antagonist result is on record as “Yes”.
Turning to `CCNC(=O)CC[C@H](N)C(=O)O` [L-Theanine, gamma-glutamylethylamide or 5-N-ethyl-glutamine], the AMPA receptor antagonist entry in series [1] is listed as “Yes”. In addition, in series [2], the Kainate receptor antagonist entry was “Yes”.
As for `C[C@]12N[C@H](Cc3ccccc31)c1ccccc12` [MK801], in series [4] (RA FLS), the proMMP-2 release result is given as “significantly increased”.
As for `N#Cc1cc2c(cc1[N+](=O)[O-])=NC(=O)C(=O)N=2` [CNQX, 6-cyano-7-nitroquinoxaline-2,3-dione], the AMPA receptor antagonist entry in series [1] was “Yes”. The Kainate receptor antagonist entry in series [2] was “Yes”.
On to `O=C1N=c2cc([N+](=O)[O-])c([N+](=O)[O-])cc2=NC1=O` [DNQX, 6,7-dinitroquinoxaline-2,3-dione], for which the AMPA receptor antagonist entry in series [1] was “Yes”. Moreover, the Kainate receptor antagonist result in series [2] is “Yes”.
